Measurements: PubChem BioAssay (NCI)
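GI50 is the concentration that inhibits growth by half. Definition used: TGI = concentration required for complete inhibition of growth.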

Tests used:
Assay in all cases: NCI anticancer screen, dose series, 384-well format
[1] = tested on: MDA-MB-435 melanoma
[2] = tested on: OVCAR-8 ovarian
[3] = tested on: NCI-H226 lung
[4] = tested on: SW-620 colon
[5] = tested on: EKVX NSCLC
[6] = tested on: U251 glioblastoma
[7] = tested on: TK-10 renal
[8] = tested on: DU-145 prostate
[9] = tested on: HL-60(TB) leukemia
[10] = tested on: SNB-19 CNS
[11] = tested on: SF-539 CNS
[12] = tested on: SN12C renal
[13] = tested on: NCI-H322M lung
[14] = tested on: 786-0 renal
[15] = tested on: CAKI-1 renal
[16] = tested on: HCT-15 colon
[17] = tested on: OVCAR-3 ovarian
[18] = tested on: NCI-H460 NSCLC
[19] = tested on: HCT-116 colon
[20] = tested on: BT-549 breast
[21] = tested on: SF-268 CNS
[22] = tested on: SK-MEL-2 melanoma
[23] = tested on: PC-3 prostate
[24] = tested on: HS 578T breast
[25] = tested on: HOP-62 NSCLC
[26] = tested on: ACHN renal
[27] = tested on: MALME-3M melanoma
[28] = tested on: HT29 colon
[29] = tested on: A498 renal
[30] = tested on: MDA-MB-231 breast
[31] = tested on: M14 melanoma
[32] = tested on: A549 NSCLC
[33] = tested on: KM12 colon
[34] = tested on: UO-31 renal
[35] = tested on: RXF 393 renal
[36] = tested on: COLO 205 colon
[37] = tested on: SK-OV-3 ovarian
[38] = tested on: UACC-62 melanoma
[39] = tested on: IGROV1 ovarian
[40] = tested on: NCI-H522 lung
[41] = tested on: SK-MEL-5 melanoma
[42] = tested on: MDA-MB-468 breast
[43] = tested on: SNB-75 CNS
[44] = tested on: OVCAR-4 ovarian
[45] = tested on: MCF7 breast
[46] = tested on: SK-MEL-28 melanoma
[47] = tested on: NCI-H23 lung
[48] = tested on: SF-295 CNS
[49] = tested on: K-562 leukemia
[50] = tested on: OVCAR-5 ovarian
[51] = tested on: T-47D breast
[52] = tested on: MOLT-4 leukemia
[53] = tested on: HOP-92 NSCLC
[54] = tested on: SR leukemia
[55] = tested on: UACC-257 melanoma

Cc1sc2c(c1C)C(c1ccc(Cl)cc1)=N[C@@H](CC(=O)NCCCN1CCN(C)CC1)c1nnc(C)n1-2
GI50 [1]: 1.33 µM
TGI [1]: > 100 µM
GI50 [2]: 1.21 µM
TGI [2]: > 100 µM
GI50 [3]: 1.52 µM
TGI [3]: > 100 µM
GI50 [4]: 23.3 µM
TGI [4]: > 100 µM
GI50 [5]: 31.5 µM
TGI [5]: > 100 µM
GI50 [6]: 2.49 µM
TGI [6]: > 100 µM
GI50 [7]: 1.19 µM
TGI [7]: > 100 µM
GI50 [8]: 7.16 µM
TGI [8]: > 100 µM
GI50 [9]: 0.0128 µM
TGI [9]: 0.027 µM
GI50 [10]: > 100 µM
TGI [10]: > 100 µM
GI50 [11]: 0.312 µM
TGI [11]: 26.9 µM
GI50 [12]: > 100 µM
TGI [12]: > 100 µM
GI50 [13]: 0.226 µM
TGI [13]: > 100 µM
GI50 [14]: 1.79 µM
TGI [14]: > 100 µM
GI50 [15]: 0.677 µM
TGI [15]: > 100 µM
GI50 [16]: 13 µM
TGI [16]: > 100 µM
GI50 [17]: 0.148 µM
TGI [17]: > 100 µM
GI50 [18]: 0.453 µM
TGI [18]: > 100 µM
GI50 [19]: 0.407 µM
TGI [19]: > 100 µM
GI50 [20]: 0.238 µM
TGI [20]: 11.4 µM
GI50 [21]: 12 µM
TGI [21]: > 100 µM
GI50 [22]: 0.0366 µM
TGI [22]: 24.5 µM
GI50 [23]: 0.583 µM
TGI [23]: > 100 µM
GI50 [24]: 0.0381 µM
TGI [24]: 11.4 µM
GI50 [25]: 0.448 µM
TGI [25]: > 100 µM
GI50 [26]: 10.2 µM
TGI [26]: > 100 µM
GI50 [27]: 0.33 µM
TGI [27]: 26.4 µM
GI50 [28]: 0.143 µM
TGI [28]: > 100 µM
GI50 [29]: 3.31 µM
TGI [29]: > 100 µM
GI50 [30]: 0.0674 µM
TGI [30]: > 100 µM
GI50 [31]: 0.404 µM
TGI [31]: > 100 µM
GI50 [32]: 0.854 µM
TGI [32]: > 100 µM
GI50 [33]: 56 µM
TGI [33]: > 100 µM
GI50 [34]: 30.2 µM
TGI [34]: > 100 µM
GI50 [35]: 0.338 µM
TGI [35]: 2.9 µM
GI50 [36]: 0.257 µM
TGI [36]: > 100 µM
GI50 [37]: 0.208 µM
TGI [37]: > 100 µM
GI50 [38]: 0.0538 µM
TGI [38]: > 100 µM
GI50 [39]: 0.277 µM
TGI [39]: > 100 µM
GI50 [40]: 0.0316 µM
TGI [40]: 0.352 µM
GI50 [41]: 0.462 µM
TGI [41]: 37.9 µM
GI50 [42]: 0.0484 µM
TGI [42]: 0.729 µM
GI50 [43]: 0.443 µM
TGI [43]: > 100 µM
GI50 [44]: 0.148 µM
TGI [44]: 1.63 µM
GI50 [45]: 0.0242 µM
TGI [45]: 4.88 µM
GI50 [46]: 10.1 µM
TGI [46]: > 100 µM
GI50 [47]: 0.308 µM
TGI [47]: 56.9 µM
GI50 [48]: 7.3 µM
TGI [48]: > 100 µM
GI50 [49]: 0.154 µM
TGI [49]: > 100 µM
GI50 [50]: 0.666 µM
TGI [50]: > 100 µM
GI50 [51]: 0.529 µM
TGI [51]: 71.6 µM
GI50 [52]: 0.105 µM
TGI [52]: 10.6 µM
GI50 [53]: 0.486 µM
TGI [53]: > 100 µM
GI50 [54]: 0.0711 µM
TGI [54]: > 100 µM
GI50 [55]: 0.985 µM
TGI [55]: 21.9 µM
